US10562890B2, “Cancer therapeutics” (UNIVERSITY OF VIRGINIA PATENT FOUNDATION, priority 2014, dated 2020)
Converted amounts (≈) assume the structure as drawn. Like-named read-outs stand apart in the source and are kept apart here.

Columns and labels:
[1] = target: CBFβ binding to the RUNX1 Runt domain (Homo sapiens (Human), UniProt Q13951); assay: FRET assay, inhibition of CBFβ binding to the RUNX1 Runt domain; details: for activity in FRET assay (structure-activity relationship, in words): relative to Al-4-57 or parent compounds; for IC50: inhibition of wild-type CBFβ binding to the RUNX1 Runt domain, NA = not active
Sequence of CBFβ binding to the RUNX1 Runt domain (Q13951 1-141): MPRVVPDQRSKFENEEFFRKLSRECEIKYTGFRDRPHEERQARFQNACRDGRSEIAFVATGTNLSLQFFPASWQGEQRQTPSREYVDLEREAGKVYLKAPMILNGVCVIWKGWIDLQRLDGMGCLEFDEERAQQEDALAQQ
From the text: Fluorescence Resonance Energy Transfer (FRET) Assay:
As described in U.S. Pat. No. 8,748,618 and published PCT application WO2010/132684, a FRET assay can be used to effectively monitor the inhibition of CBF binding to the Runt domain of RUNX proteins (as well as for CBFβ-SMMHC binding to the Runt domain of RUNX proteins). For the assay, the green fluorescent protein derivative Cerulean is fused to the N-terminus of the Runt domain and the green fluorescent protein derivative Venus to the N-terminus of CBFβ (Gorczynski, M. J., J. Grembecka, et al. (2007), “Allosteric inhibition of the protein-protein interaction between the leukemia-associated proteins Runx1 and CBFbeta.” Chem Biol 14(10): 1186-97), or to CBFβ-SMMHC (Illendula, A. et al. Chemical biology. A small-molecule inhibitor of the aberrant transcription factor CBFbeta-SMMHC delays leukemia in mice. Science 347, 779-784, doi:10.1126/science.aaa0314 (2015)). The ratio of the emission intensities at 525 nm and 474 nm, measured after excitation at 433 nm, was used as the readout in this assay. The dynamic range for the FRET assay was determined by adding a 30-fold excess of untagged CBFβ (or CBFβ-SMMHC) to the assay and the associated change in the FRET ratio was defined as 100% inhibition.

[2] = Sedative effects and tolerability in mice after IP administration; type: in vivo; details: HCl salts with Captisol, IP at 100 mg/kg
From the text: “NA” indicates not active. […] Reasoning that this effect depended on the ability of the compound to cross the blood brain barrier (BBB), compounds Al-12-126 and Al-14-91 have appended morpholine ring substituents to the 5 position of the pyridine ring to increase the polarity of the compounds and thereby limit BBB penetration.

[3] = Aqueous solubility in 0.25% DMSO by NMR spectroscopy; type: physicochemical; details: kinetic from dmso stock
Description: Al-10-104, Al-12-126, and Al-14-91 were all soluble at concentrations above 100 μM. […] As the Runt domain is highly conserved among all three RUNX family members, we would expect to see similar effects on binding to RUNX2 or RUNX3. Therefore, the action of the inhibitors will likely affect the activity of all three RUNX family members.

[4] = target: binding of CBFβ to RUNX1 in SEM cells (Homo sapiens (Human), UniProt Q13951); assay: Co-immunoprecipitation of CBFβ with RUNX1 in SEM cells; type: cell-based; details: 10 μM, 6 hours
Sequence of binding of CBFβ to RUNX1 in SEM cells (Q13951 whole entry): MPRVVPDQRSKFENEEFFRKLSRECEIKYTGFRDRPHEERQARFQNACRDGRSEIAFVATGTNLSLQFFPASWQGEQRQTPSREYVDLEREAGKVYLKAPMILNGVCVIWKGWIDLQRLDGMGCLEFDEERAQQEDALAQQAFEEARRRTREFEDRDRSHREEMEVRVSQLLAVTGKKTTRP
Description: To test whether the wild-type CBFβ Inhibitors can disrupt the binding of CBFβ to RUNX1 in cells, co-immunoprecipitation experiments were performed in the SEM cell line. Co-immunoprecipitation assays of lysates from […] SEM cells were treated with Al-4-88^1, Al-10-47, Al-10-104, Al-12-126 and Al-14-91 at 10 μM for 6 hours. RUNX1-bound CBFβ protein levels and immunoprecipitated RUNX1 are shown on the top panel of FIG. 2A. Quantification of RUNX1 bound CBFβ is shown on the bottom graph.

MCF10A-5E cells = assay: Multiacini formation in 3D culture of MCF10A-5E cells; type: cell-based; details: shRUNX1 or control cells, 3D culture 10-11 days, compared to carrier control or Al-4-88
From the text: CBFβ inhibitors altered acinar morphogenesis of the basal-like (triple negative) breast epithelial cells and blocked survival of basal-like breast cancer cells in 3D organotypic culture. To evaluate whether CBFβ inhibition would influence the multicellular organization of basal-like breast epithelia, 3D culture of MCF10A-5E cells was used. Knockdown of RUNX1 in these cells delayed proliferation arrest and promoted the formation of nonspherical acini, indicating a role for RUNX1 during morphogenesis.
The multiacini resulting from CBFβ inhibition were not radially symmetric, thereby arguing against a general defect in cell polarity or proliferation arrest. Instead, the inhibitors appeared to be initiating a nascent branching program that is reminiscent of when TGFβ-family signaling is impaired.
FIG. 9A: MCF10A-5E cells stably expressing shRUNX1 or shGFP control were grown in 3D culture for 10-11 days with the indicated compounds and imaged by Brightfield microscopy. The total number of multiacini per chamber was counted and scaled to the shGFP DMSO control. Data are shown as the mean±SEM of eight independent cultures.

11 leukemia cell lines = assay: Viability of a panel of 11 leukemia cell lines; type: cell-based; details: 48 hours of treatment
From the text: Compounds Al-4-88, Al-4-57, Al-10-47, Al-10-104, and Al-14-91 were screened against a panel of 11 leukemia cell lines with varying genotypes.
The viability is represented as the percent DAPI negative cells relative to DMSO control. Each symbol/color in the graphs of FIG. 4 represent an individual cell line. The symbol represents the mean of independent replicates and the error bars represent the SEM. The table indicates the morphology, type of leukemia, and known mutations for each of the 11 cell lines.

[5] = target: CBFβ-SMMHC binding to the RUNX1 Runt domain; details: U.S. Pat. No. 8,748,618; read-out: IC50, binding of CBF-SMMHC to the RUNX1 Runt domain; cited from earlier work
[6] = previous work, Illendula et al. Science 2015; cited from earlier work
MLL-AF4 leukemia cells = assay: Cell death of MLL-AF4 leukemia cells; type: cell-based, human
[7] = test system: T-ALL cell lines Jurkat, HBP-ALL, Loucy, and KOPTK1; assay: Proliferation of T-ALL cell lines; type: cell-based, human
H520 lung cancer cells = assay: MTT growth assay, H520 cells; type: cell-based; details: H520, 10 μM, 72 hrs
Description: (§1) Activity of Al-10-104 was tested using several lung cancer cell lines and one immortalized, non-transformed lung cell line. […] Data for the squamous cell carcinoma of the lung cell line H520 and the immortalized normal lung epithelial cell line BEAS-2B are shown in FIG. 10.
(§2) H520 cells were cultured in RPMI 1640 medium, supplemented with fetal bovine serum (10% final concentration), Hepes (1%), and sodium priruvate (1%). The MTT assay used 4×10^5/ml cells. BEAS-2B cells were cultured in DMEM medium with fetal bovine serum (10% final concentration). The MTT assay for the BEAS-2B cell line was performed using 3.5×10^5/ml cells.
(§3) Al-4-88 had no effect on either cell line.

[8] = test system: BEAS-2B normal lung cells; assay: MTT growth assay, BEAS-2B cells; type: cell-based; details: 10 μM, 72 hrs
Description: as §1, §2, §3

[9] = aqueous, 0.25% DMSO, NMR spectroscopy, read-out: aqueous solubility

For c1ccc(-c2nc3ccccc3[nH]2)nc1 [Compound 3a, 2-(pyridin-2-yl)-1H-benzo[d]imidazole], the “activity in FRET assay (structure-activity relationship, in words)” value (“activity in FRET assay” for short) [1] was “complete loss of activity”.

For COc1cc(OCCN2CCOCC2)cnc1-c1nc2cc(OC(F)(F)F)ccc2[nH]1 [Al-14-91], the sedative effects [2] was “did not induce the sedative effects”, the tolerability [2] was “well-tolerated” and the solubility [3, 9] was over 100 µM. For the same compound, the “RUNX1-bound CBFβ (co-immunoprecipitation)” value (from here on “RUNX1-bound CBFβ”) [4] was “reduction in binding”, the “formation of multiacinar structures” value (MCF10A-5E cells) was “dramatic increase” and the “percent viability (DAPI negative cells relative to DMSO)” value (11 leukemia cell lines) was “significant inhibition of the majority of the cell lines”. For the same compound, the IC50 [1] was 2.97 ± 0.53 µM.

With COc1ccc2[nH]c(-c3cccc(OC)n3)nc2c1 [Compound 4g, 5-methoxy-2-(6-methoxypyridin-2-yl)-1H-benzo[d]imidazole] the “activity in FRET assay” value [1] was “inactive”.

In the case of Cc1ccc2[nH]c(-c3ccccn3)nc2c1 [Compound 3d, 5-methyl-2-(pyridin-2-yl)-1H-benzo[d]imidazole], the “activity in FRET assay” value [1] is reported as “loss of activity”.

For COc1ccc2[nH]c(-c3cccc(C)n3)nc2c1 [Compound 4h, 5-methoxy-2-(6-methylpyridin-2-yl)-1H-benzo[d]imidazole], the “activity in FRET assay” value [1] was “inactive”.

Work on CCOc1ccc2[nH]c(-c3ccccn3)nc2c1 [Compound 3b, 5-ethoxy-2-(pyridin-2-yl)-1H-benzo[d]imidazole] yielded an IC50 [1] of at least 34.3 µM.

For COc1ccc2[nH]c(-c3ccccn3)nc2c1 [Al-4-57], the IC50 [5] is given as 22 µM, the half-life in mice [6] is given as “short half-life” and the “percent viability (DAPI negative cells relative to DMSO)” value (11 leukemia cell lines) is given as “only very weak activity”. The IC50 [1] was 34 µM.

In the case of FC(F)(F)c1ccc2[nH]c(-c3ccccn3)nc2c1 [Compound 3f, 2-(pyridin-2-yl)-5-(trifluoromethyl)-1H-benzo[d]imidazole], the “activity in FRET assay” value [1] is reported as “loss of activity”.

In the case of FC(F)(F)Oc1ccc2[nH]c(-c3ccccn3)nc2c1 [Al-10-47], the cell death (MLL-AF4 leukemia cells) is reported as “induced cell death”, the solubility [3] is reported as 0.44 µM (≈ 0.123 µg/mL) and the “RUNX1-bound CBFβ” value [4] is reported as “only a modest effect”. For the same compound, the “percent viability (DAPI negative cells relative to DMSO)” value (11 leukemia cell lines) was “significant inhibition of the majority of the cell lines” and the IC50 [1] was 3.19 ± 0.5 µM.

Compound COc1cnc(-c2nc3cc(OC(F)(F)F)ccc3[nH]2)c(OC)c1 [Al-12-16] has an IC50 [1] of 1.69 ± 0.18 µM.

In the case of COc1ccc2[nH]c(-c3ccccc3)nc2c1 [Compound 2a, 5-methoxy-2-phenyl-1H-benzo[d]imidazole], the “activity in FRET assay” value [1] is reported as “complete loss of activity”.

With FC(F)(F)Oc1ccc2[nH]c(-c3ncccc3OCCN3CCOCC3)nc2c1 [Al-14-55] the IC50 [1] was 4.83 ± 0.32 µM.

Work on CN(C)c1cccnc1-c1nc2cc(OC(F)(F)F)ccc2[nH]1 [Al-14-18] yielded an IC50 [1] of 4.97 ± 0.27 µM.

In the case of O=C(O)c1cccnc1-c1nc2cc(OC(F)(F)F)ccc2[nH]1 [Al-12-150], the IC50 [1] is reported as 48.9 ± 1.6 µM.

For COc1ccnc(-c2nc3cc(OC(F)(F)F)ccc3[nH]2)c1OC [Al-14-72], the IC50 [1] was 1.72 ± 0.23 µM.

In the case of Fc1ccc2[nH]c(-c3ccccn3)nc2c1 [Compound 3c, 5-fluoro-2-(pyridin-2-yl)-1H-benzo[d]imidazole], the IC50 [1] is reported as at least 34.3 µM.

In the case of FC(F)(F)Oc1ccc2[nH]c(-c3ccc(OCCN4CCOCC4)cn3)nc2c1 [Al-12-126], the sedative effects [2] is reported as “did not induce the sedative effects”, the tolerability [2] is reported as “well-tolerated” and the solubility [3, 9] is reported as over 100 µM. The “RUNX1-bound CBFβ” value [4] was “reduction in binding” and the IC50 [1] was 8.91 ± 1.3 µM.

With COc1cccc2[nH]c(-c3ccccn3)nc12 [Compound 4a, 4-methoxy-2-(pyridin-2-yl)-1H-benzo[d]imidazole] the IC50 [1] was at least 34.3 µM and the “activity in FRET assay” value [1] was “reduced activity”.

In the case of COc1ccc2[nH]c(-c3ccco3)nc2c1 [Compound 2b, 2-(furan-2-yl)-5-methoxy-1H-benzo[d]imidazole], the “activity in FRET assay” value [1] is reported as “complete loss of activity”.

In the case of c1ccc(-c2nc3ccccc3[nH]2)nc1 [Al-4-88, reference compound], the proliferation [7] is reported as “did not have such an effect”, the “cell growth (MTT assay)” value (H520 lung cancer cells) is reported as “no effect” and the “percent viability (DAPI negative cells relative to DMSO)” value (11 leukemia cell lines) is reported as “No activity”. The “cell growth (MTT assay)” value [8] was “no effect”.
